Test results: ChEMBL document CHEMBL5209576, “Membrane potential based assay for SLC5A7 using HEK-293 SLC5A7 OE cells” (2022)

Molecular target: T1, High affinity choline transporter 1 (Homo sapiens, UniProt Q9GZV3)
T1 sequence (Q9GZV3 whole entry): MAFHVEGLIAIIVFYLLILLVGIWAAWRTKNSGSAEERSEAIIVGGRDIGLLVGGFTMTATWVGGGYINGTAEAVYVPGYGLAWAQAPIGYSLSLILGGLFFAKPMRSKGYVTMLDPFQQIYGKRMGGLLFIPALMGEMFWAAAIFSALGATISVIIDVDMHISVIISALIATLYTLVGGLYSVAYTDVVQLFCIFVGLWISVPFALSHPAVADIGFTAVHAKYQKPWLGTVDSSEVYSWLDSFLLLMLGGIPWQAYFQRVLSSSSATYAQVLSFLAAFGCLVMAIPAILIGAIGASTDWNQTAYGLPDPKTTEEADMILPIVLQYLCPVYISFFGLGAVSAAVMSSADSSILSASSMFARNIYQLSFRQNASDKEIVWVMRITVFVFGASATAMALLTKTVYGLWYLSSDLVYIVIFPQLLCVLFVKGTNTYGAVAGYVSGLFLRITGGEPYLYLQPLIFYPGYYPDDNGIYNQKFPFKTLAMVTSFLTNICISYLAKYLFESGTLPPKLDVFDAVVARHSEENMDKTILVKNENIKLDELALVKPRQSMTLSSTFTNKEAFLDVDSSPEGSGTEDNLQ
Assay: Substrate uptake and inhibition of the High Affinity Choline Transporter 1 (CHT1, SLC5A7) as assessed by the fluorescent FLIPR membrane potential dye in HEK-293 JumpIN-SLC5A7 cells (PubChem AID: 1794811)
Type: functional, cell-based, HEK293

C[N+](C)(C)CCO.[Cl-] [CHOLINE CHLORIDE]
EC50: 17 µM

C[N+]1(C)CCOC(O)(c2ccc(-c3ccc(C4(O)C[N+](C)(C)CCO4)cc3)cc2)C1.[Br-].[Br-] (configuration not stated)
IC50 (hek293): Inhibitor: Almost Complete Inhibition At A Concentration Of 10 Μm
